Reference: the kinase profiling compilation of Christmann-Franck et al. (2016)

How the values were obtained:
Assay in all cases: KINOMEscan competition binding
Settings in all cases: compound 10.0 µM
ACVR1B (human) = ACVR1B (human) (UniProt P36896)
ADCK4 (human) = ADCK4 (human) (UniProt Q96D53)
CAMK1G (human) = CAMK1G (human) (UniProt Q96NX5)
CDC42BPA (human) = CDC42BPA (human) (UniProt Q5VT25)
CDK16 (human) = CDK16 (human) (UniProt Q00536)
CDK8 (human) = CDK8 (human) (UniProt P49336)
CHUK (human) = CHUK (human) (UniProt O15111)
CIT (human) = CIT (human) (UniProt O14578)
CSNK1A1L (human) = CSNK1A1L (human) (UniProt Q8N752)
CSNK2A1 (human) = CSNK2A1 (human) (UniProt P68400)
EPHB2 (human) = EPHB2 (human) (UniProt P29323)
FER (human) = FER (human) (UniProt P16591)
FGR (human) = FGR (human) (UniProt P09769)
FRK (human) = FRK (human) (UniProt P42685)
GSK3B (human) = GSK3B (human) (UniProt P49841)
MAP2K1 (human) = MAP2K1 (human) (UniProt Q02750)
MAP3K9 (human) = MAP3K9 (human) (UniProt P80192)
MUSK (human) = MUSK (human) (UniProt O15146)
MYLK2 (human) = MYLK2 (human) (UniProt Q9H1R3)
NEK7 (human) = NEK7 (human) (UniProt Q8TDX7)
NTRK1 (human) = NTRK1 (human) (UniProt P04629)
NTRK3 (human) = NTRK3 (human) (UniProt Q16288)
NUAK1 (human) = NUAK1 (human) (UniProt O60285)
PAK1 (human) = PAK1 (human) (UniProt Q13153)
PHKG1 (human) = PHKG1 (human) (UniProt Q16816)
PIK3CA (human) = PIK3CA (human) (UniProt P42336)
PLK1 (human) = PLK1 (human) (UniProt P53350)
PLK3 (human) = PLK3 (human) (UniProt Q9H4B4)
ROCK2 (human) = ROCK2 (human) (UniProt O75116)
ROS1 (human) = ROS1 (human) (UniProt P08922)
RPS6KA2 KD2 (human) = RPS6KA2 KD2 (human) (UniProt Q15349)
STK25 (human) = STK25 (human) (UniProt O00506)
STK32B (human) = STK32B (human) (UniProt Q9NY57)
STK33 (human) = STK33 (human) (UniProt Q9BYT3)
STK4 (human) = STK4 (human) (UniProt Q13043)
TSSK1B (human) = TSSK1B (human) (UniProt Q9BXA7)
[1] = molecular target: TYK2 JH2 pseudokinase (human) (UniProt P29597)
ICK (human) = ICK (human) (UniProt Q9UPZ9)
[2] = test system: KIT (human), P10721 [D816H]
TBK1 (human) = TBK1 (human) (UniProt Q9UHD2)

Chain of PLK3 (human) (Q9H4B4 whole entry, looked up): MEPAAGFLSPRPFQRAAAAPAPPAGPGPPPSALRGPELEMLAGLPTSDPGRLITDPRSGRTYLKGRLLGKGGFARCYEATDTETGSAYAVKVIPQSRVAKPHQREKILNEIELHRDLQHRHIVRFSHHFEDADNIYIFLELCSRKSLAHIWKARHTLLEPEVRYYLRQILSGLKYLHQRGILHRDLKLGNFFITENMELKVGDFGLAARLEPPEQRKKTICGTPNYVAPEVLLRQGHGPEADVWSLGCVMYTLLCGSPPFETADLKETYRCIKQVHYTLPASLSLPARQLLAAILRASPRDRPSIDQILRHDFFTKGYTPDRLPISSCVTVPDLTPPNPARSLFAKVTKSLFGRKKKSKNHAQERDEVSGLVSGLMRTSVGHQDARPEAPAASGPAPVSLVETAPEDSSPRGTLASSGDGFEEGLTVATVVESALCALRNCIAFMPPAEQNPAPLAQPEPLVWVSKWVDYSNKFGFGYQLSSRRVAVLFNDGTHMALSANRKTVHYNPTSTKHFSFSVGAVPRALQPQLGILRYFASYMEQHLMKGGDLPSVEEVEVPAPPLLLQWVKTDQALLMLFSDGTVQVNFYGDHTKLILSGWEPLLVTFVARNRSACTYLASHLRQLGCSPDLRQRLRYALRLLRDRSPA
Chain of ROS1 (human) (P08922 whole entry, looked up): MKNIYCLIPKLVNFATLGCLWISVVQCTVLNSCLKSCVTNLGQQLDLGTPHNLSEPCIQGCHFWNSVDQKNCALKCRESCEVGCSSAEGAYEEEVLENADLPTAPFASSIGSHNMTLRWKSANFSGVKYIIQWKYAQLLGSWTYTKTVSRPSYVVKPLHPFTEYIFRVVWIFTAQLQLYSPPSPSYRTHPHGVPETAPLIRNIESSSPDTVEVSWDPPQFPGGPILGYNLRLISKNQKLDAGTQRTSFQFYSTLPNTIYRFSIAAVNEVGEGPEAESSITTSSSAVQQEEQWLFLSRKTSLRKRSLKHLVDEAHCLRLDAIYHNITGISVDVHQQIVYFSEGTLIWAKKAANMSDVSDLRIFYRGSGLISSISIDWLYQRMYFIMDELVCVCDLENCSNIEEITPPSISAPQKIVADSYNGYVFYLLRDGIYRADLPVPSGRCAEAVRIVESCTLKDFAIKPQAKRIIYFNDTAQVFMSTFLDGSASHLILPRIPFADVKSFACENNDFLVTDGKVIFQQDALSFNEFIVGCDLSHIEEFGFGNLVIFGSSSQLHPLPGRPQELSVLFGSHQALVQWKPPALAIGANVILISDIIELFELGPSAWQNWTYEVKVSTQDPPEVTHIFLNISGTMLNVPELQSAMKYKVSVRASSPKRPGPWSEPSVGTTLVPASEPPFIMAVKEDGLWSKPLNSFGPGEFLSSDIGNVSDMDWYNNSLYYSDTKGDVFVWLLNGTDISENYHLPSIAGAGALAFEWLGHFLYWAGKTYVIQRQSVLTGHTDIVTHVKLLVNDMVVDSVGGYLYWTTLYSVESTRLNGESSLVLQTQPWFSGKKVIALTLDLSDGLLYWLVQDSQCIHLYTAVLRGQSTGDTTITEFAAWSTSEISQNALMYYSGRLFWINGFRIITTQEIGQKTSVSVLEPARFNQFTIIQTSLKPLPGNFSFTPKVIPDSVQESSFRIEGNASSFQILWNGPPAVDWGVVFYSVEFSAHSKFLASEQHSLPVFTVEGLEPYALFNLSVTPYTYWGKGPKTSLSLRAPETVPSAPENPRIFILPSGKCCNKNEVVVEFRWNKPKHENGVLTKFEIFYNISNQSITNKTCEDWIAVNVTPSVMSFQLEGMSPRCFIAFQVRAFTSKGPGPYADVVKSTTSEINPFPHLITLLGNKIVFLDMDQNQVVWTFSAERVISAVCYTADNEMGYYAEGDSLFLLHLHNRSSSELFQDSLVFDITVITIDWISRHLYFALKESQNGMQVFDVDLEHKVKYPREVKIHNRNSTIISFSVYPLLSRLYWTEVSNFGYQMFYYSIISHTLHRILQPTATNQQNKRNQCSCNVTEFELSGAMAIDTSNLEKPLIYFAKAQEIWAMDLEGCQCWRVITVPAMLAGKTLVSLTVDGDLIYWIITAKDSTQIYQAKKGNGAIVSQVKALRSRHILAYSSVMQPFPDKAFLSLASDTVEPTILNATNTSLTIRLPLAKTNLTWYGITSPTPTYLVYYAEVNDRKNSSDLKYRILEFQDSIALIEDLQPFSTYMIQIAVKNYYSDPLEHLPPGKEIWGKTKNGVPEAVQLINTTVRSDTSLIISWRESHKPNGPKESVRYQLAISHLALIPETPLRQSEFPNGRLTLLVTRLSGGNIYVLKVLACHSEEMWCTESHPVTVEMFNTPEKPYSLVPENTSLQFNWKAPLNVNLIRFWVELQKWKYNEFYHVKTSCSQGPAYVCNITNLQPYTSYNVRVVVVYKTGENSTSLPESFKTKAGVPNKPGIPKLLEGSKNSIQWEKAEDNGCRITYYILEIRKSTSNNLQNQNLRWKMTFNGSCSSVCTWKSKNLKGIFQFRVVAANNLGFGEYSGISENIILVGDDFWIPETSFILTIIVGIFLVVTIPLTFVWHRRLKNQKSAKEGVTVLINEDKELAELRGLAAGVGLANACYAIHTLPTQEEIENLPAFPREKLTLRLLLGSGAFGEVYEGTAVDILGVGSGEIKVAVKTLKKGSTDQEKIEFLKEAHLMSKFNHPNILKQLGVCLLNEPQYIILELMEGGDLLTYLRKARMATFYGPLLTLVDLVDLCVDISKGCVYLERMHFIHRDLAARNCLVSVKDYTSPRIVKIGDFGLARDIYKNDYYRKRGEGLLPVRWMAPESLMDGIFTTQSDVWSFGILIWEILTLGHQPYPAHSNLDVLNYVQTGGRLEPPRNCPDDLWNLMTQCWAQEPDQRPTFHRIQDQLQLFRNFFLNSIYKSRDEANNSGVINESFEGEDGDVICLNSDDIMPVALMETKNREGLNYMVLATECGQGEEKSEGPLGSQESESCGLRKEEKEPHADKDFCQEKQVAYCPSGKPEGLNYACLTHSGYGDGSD
Chain of FER (human) (P16591 whole entry, looked up): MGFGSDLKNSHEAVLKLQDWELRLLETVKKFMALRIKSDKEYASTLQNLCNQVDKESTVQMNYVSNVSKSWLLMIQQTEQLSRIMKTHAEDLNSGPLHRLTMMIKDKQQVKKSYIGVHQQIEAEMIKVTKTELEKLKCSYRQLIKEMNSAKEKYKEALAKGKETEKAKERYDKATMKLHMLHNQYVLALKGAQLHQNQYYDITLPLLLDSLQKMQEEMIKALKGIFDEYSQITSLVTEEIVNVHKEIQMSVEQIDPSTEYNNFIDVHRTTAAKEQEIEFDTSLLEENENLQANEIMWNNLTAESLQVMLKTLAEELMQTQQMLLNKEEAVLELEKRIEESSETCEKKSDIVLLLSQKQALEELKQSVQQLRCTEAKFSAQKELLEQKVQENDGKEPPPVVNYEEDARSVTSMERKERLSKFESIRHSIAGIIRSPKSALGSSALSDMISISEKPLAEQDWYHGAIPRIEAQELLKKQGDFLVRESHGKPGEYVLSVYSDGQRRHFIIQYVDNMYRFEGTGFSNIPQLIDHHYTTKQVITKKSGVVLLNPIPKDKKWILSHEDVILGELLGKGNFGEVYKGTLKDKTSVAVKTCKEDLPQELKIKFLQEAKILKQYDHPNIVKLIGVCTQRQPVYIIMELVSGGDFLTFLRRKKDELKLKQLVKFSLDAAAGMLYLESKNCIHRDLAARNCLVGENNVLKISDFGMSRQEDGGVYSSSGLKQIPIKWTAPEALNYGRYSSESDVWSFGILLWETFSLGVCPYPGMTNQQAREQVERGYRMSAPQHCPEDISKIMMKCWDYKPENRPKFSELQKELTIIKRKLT
Chain of STK4 (human) (Q13043 whole entry, looked up): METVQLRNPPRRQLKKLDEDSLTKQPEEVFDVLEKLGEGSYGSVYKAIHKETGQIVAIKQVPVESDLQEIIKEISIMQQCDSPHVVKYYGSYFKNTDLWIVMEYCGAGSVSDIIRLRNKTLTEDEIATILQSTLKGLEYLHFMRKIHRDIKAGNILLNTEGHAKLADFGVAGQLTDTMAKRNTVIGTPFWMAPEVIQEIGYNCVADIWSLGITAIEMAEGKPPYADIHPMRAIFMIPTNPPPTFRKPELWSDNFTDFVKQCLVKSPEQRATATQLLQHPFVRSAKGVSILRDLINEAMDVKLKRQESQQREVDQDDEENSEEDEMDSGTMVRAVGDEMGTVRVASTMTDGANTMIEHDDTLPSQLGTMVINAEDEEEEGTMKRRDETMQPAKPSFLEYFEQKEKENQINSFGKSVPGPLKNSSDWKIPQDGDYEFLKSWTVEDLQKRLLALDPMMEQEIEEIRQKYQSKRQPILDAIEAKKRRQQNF
Chain of ACVR1B (human) (P36896 whole entry, looked up): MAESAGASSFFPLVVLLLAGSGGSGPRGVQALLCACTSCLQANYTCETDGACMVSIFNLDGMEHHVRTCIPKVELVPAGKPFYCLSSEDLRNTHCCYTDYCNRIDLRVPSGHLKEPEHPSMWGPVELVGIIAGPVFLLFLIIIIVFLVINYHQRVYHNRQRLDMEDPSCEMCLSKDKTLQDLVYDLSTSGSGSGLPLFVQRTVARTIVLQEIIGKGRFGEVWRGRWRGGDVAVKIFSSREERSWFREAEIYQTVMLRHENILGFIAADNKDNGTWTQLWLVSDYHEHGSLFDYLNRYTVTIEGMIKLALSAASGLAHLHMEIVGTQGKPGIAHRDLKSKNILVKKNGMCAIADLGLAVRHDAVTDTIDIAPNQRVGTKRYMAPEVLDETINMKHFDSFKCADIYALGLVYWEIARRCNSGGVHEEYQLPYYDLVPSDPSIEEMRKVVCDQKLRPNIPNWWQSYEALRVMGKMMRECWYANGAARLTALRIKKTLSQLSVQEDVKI

## COc1cc(C)c(Sc2cnc(NC(=O)c3ccc(CNC(C)C(C)C)cc3)s2)cc1C(=O)N1CCN(C(C)=O)CC1 (centres undefined)
ACVR1B (human)
  kinase still bound, per cent of control: 100%
ADCK4 (human)
  kinase still bound, per cent of control: 100%
CAMK1G (human)
  kinase still bound, per cent of control: 100%
CDC42BPA (human)
  kinase still bound, per cent of control: 100%
CDK16 (human)
  kinase still bound, per cent of control: 100%
CDK8 (human)
  kinase still bound, per cent of control: 100%
CHUK (human)
  kinase still bound, per cent of control: 100%
CIT (human)
  kinase still bound, per cent of control: 100%
CSNK1A1L (human)
  kinase still bound, per cent of control: 100%
CSNK2A1 (human)
  kinase still bound, per cent of control: 100%
EPHB2 (human)
  kinase still bound, per cent of control: 100%
FER (human)
  kinase still bound, per cent of control: 15%
FGR (human)
  kinase still bound, per cent of control: 100%
FRK (human)
  kinase still bound, per cent of control: 100%
GSK3B (human)
  kinase still bound, per cent of control: 100%
MAP2K1 (human)
  kinase still bound, per cent of control: 100%
MAP3K9 (human)
  kinase still bound, per cent of control: 100%
MUSK (human)
  kinase still bound, per cent of control: 0.2%
MYLK2 (human)
  kinase still bound, per cent of control: 100%
NEK7 (human)
  kinase still bound, per cent of control: 14%
NTRK1 (human)
  kinase still bound, per cent of control: 20%
NTRK3 (human)
  kinase still bound, per cent of control: 100%
NUAK1 (human)
  kinase still bound, per cent of control: 100%
PAK1 (human)
  kinase still bound, per cent of control: 100%
PHKG1 (human)
  kinase still bound, per cent of control: 100%
PIK3CA (human)
  kinase still bound, per cent of control: 100%
PLK1 (human)
  kinase still bound, per cent of control: 100%
PLK3 (human)
  kinase still bound, per cent of control: 100%
ROCK2 (human)
  kinase still bound, per cent of control: 100%
ROS1 (human)
  kinase still bound, per cent of control: 100%
RPS6KA2 KD2 (human)
  kinase still bound, per cent of control: 100%
STK25 (human)
  kinase still bound, per cent of control: 100%
STK32B (human)
  kinase still bound, per cent of control: 100%
STK33 (human)
  kinase still bound, per cent of control: 7%
STK4 (human)
  kinase still bound, per cent of control: 100%
TSSK1B (human)
  kinase still bound, per cent of control: 100%
[1]
  kinase still bound, per cent of control: 100%

## COc1ccc(N(C(=O)Oc2cc(C(=O)Nc3cccc(C(F)(F)F)c3)ccc2C)c2ccnc(Nc3ccc(N4CCN(C)CC4)cc3)n2)c(OC)c1
ACVR1B (human)
  kinase still bound, per cent of control: 100%
ADCK4 (human)
  kinase still bound, per cent of control: 100%
CAMK1G (human)
  kinase still bound, per cent of control: 100%
CDC42BPA (human)
  kinase still bound, per cent of control: 100%
CDK16 (human)
  kinase still bound, per cent of control: 100%
CDK8 (human)
  kinase still bound, per cent of control: 100%
CIT (human)
  kinase still bound, per cent of control: 0.7%
CSNK1A1L (human)
  kinase still bound, per cent of control: 100%
CSNK2A1 (human)
  kinase still bound, per cent of control: 100%
EPHB2 (human)
  kinase still bound, per cent of control: 0.9%
FER (human)
  kinase still bound, per cent of control: 4.4%
FGR (human)
  kinase still bound, per cent of control: 1.2%
FRK (human)
  kinase still bound, per cent of control: 0.4%
GSK3B (human)
  kinase still bound, per cent of control: 100%
MAP2K1 (human)
  kinase still bound, per cent of control: 100%
MAP3K9 (human)
  kinase still bound, per cent of control: 100%
MUSK (human)
  kinase still bound, per cent of control: 20%
MYLK2 (human)
  kinase still bound, per cent of control: 100%
NEK7 (human)
  kinase still bound, per cent of control: 100%
NTRK1 (human)
  kinase still bound, per cent of control: 27%
NTRK3 (human)
  kinase still bound, per cent of control: 13%
NUAK1 (human)
  kinase still bound, per cent of control: 100%
PAK1 (human)
  kinase still bound, per cent of control: 100%
PHKG1 (human)
  kinase still bound, per cent of control: 100%
PIK3CA (human)
  kinase still bound, per cent of control: 100%
PLK1 (human)
  kinase still bound, per cent of control: 100%
PLK3 (human)
  kinase still bound, per cent of control: 100%
ROS1 (human)
  kinase still bound, per cent of control: 1.9%
RPS6KA2 KD2 (human)
  kinase still bound, per cent of control: 100%
STK25 (human)
  kinase still bound, per cent of control: 100%
STK32B (human)
  kinase still bound, per cent of control: 100%
STK33 (human)
  kinase still bound, per cent of control: 100%
STK4 (human)
  kinase still bound, per cent of control: 100%
TSSK1B (human)
  kinase still bound, per cent of control: 100%

## COc1cc(N2CCC(C(N)=O)CC2)ccc1Nc1nc(N)c(Cl)c(Nc2ccccc2S(=O)(=O)C(C)C)n1
ACVR1B (human)
  kinase still bound, per cent of control: 100%
ADCK4 (human)
  kinase still bound, per cent of control: 0%
CAMK1G (human)
  kinase still bound, per cent of control: 100%
CDC42BPA (human)
  kinase still bound, per cent of control: 100%
CDK16 (human)
  kinase still bound, per cent of control: 100%
CDK8 (human)
  kinase still bound, per cent of control: 100%
CHUK (human)
  kinase still bound, per cent of control: 100%
CIT (human)
  kinase still bound, per cent of control: 100%
CSNK1A1L (human)
  kinase still bound, per cent of control: 21%
CSNK2A1 (human)
  kinase still bound, per cent of control: 100%
EPHB2 (human)
  kinase still bound, per cent of control: 100%
FER (human)
  kinase still bound, per cent of control: 0.6%
FGR (human)
  kinase still bound, per cent of control: 100%
FRK (human)
  kinase still bound, per cent of control: 6.6%
GSK3B (human)
  kinase still bound, per cent of control: 100%
MAP2K1 (human)
  kinase still bound, per cent of control: 100%
MAP3K9 (human)
  kinase still bound, per cent of control: 100%
MUSK (human)
  kinase still bound, per cent of control: 100%
MYLK2 (human)
  kinase still bound, per cent of control: 100%
NEK7 (human)
  kinase still bound, per cent of control: 100%
NTRK1 (human)
  kinase still bound, per cent of control: 100%
NTRK3 (human)
  kinase still bound, per cent of control: 100%
NUAK1 (human)
  kinase still bound, per cent of control: 100%
PAK1 (human)
  kinase still bound, per cent of control: 100%
PHKG1 (human)
  kinase still bound, per cent of control: 12%
PIK3CA (human)
  kinase still bound, per cent of control: 100%
PLK1 (human)
  kinase still bound, per cent of control: 21%
PLK3 (human)
  kinase still bound, per cent of control: 100%
ROCK2 (human)
  kinase still bound, per cent of control: 100%
ROS1 (human)
  kinase still bound, per cent of control: 3.2%
RPS6KA2 KD2 (human)
  kinase still bound, per cent of control: 18%
STK25 (human)
  kinase still bound, per cent of control: 100%
STK32B (human)
  kinase still bound, per cent of control: 3.7%
STK33 (human)
  kinase still bound, per cent of control: 4.5%
STK4 (human)
  kinase still bound, per cent of control: 100%
TSSK1B (human)
  kinase still bound, per cent of control: 100%
[1]
  kinase still bound, per cent of control: 100%

## CC(=O)c1c(C)c2cnc(Nc3ccc(N4CCNCC4)cn3)nc2n(C2CCCC2)c1=O
ACVR1B (human)
  kinase still bound, per cent of control: 96%
ADCK4 (human)
  kinase still bound, per cent of control: 53%
CAMK1G (human)
  kinase still bound, per cent of control: 20%
CDC42BPA (human)
  kinase still bound, per cent of control: 98%
CDK16 (human)
  kinase still bound, per cent of control: 0.2%
CHUK (human)
  kinase still bound, per cent of control: 83%
CIT (human)
  kinase still bound, per cent of control: 3.2%
CSNK1A1L (human)
  kinase still bound, per cent of control: 62%
CSNK2A1 (human)
  kinase still bound, per cent of control: 0.05%
FER (human)
  kinase still bound, per cent of control: 47%
FGR (human)
  kinase still bound, per cent of control: 71%
ICK (human)
  kinase still bound, per cent of control: 38%
[2]
  kinase still bound, per cent of control: 56%
MAP2K1 (human)
  kinase still bound, per cent of control: 20%
MAP3K9 (human)
  kinase still bound, per cent of control: 78%
MYLK2 (human)
  kinase still bound, per cent of control: 32%
NEK7 (human)
  kinase still bound, per cent of control: 60%
NTRK1 (human)
  kinase still bound, per cent of control: 6.5%
NTRK3 (human)
  kinase still bound, per cent of control: 23%
NUAK1 (human)
  kinase still bound, per cent of control: 48%
PHKG1 (human)
  kinase still bound, per cent of control: 18%
PIK3CA (human)
  kinase still bound, per cent of control: 69%
PLK1 (human)
  kinase still bound, per cent of control: 8.4%
PLK3 (human)
  kinase still bound, per cent of control: 19%
ROCK2 (human)
  kinase still bound, per cent of control: 36%
RPS6KA2 KD2 (human)
  kinase still bound, per cent of control: 26%
STK25 (human)
  kinase still bound, per cent of control: 34%
STK33 (human)
  kinase still bound, per cent of control: 24%
STK4 (human)
  kinase still bound, per cent of control: 74%
TBK1 (human)
  kinase still bound, per cent of control: 47%
TSSK1B (human)
  kinase still bound, per cent of control: 8%
